Data: BindingDB's records for patent US9546164 (Genentech Inc, 2017)

Target: Sodium channel protein type 9 subunit alpha (Homo sapiens, UniProt Q15858)
Assay: Radioligand Binding Assay (EP) (In vitro Assay)
Conditions: pH 7.4; 25 °C
Protocol: Binding of this radioligand was preformed in 5 mL borosilicate glass test tubes at room temperature. […] Non-specific binding was determined in the presence of 1 μM unlabelled compound. […] In 360 μL, membranes were incubated with 100 pM [3H]compound and increasing concentrations of Test Compound. Non-specific binding was defined in the presence of 1 μM unlabelled compound. Reactions were transferred and filtered through 96-well glass fiber/C filter plates presoaked with 0.5% polyethylene imine. […] Bound radioactivity was determined by liquid scintillation counting.

Chain of Sodium channel protein type 9 subunit alpha (Q15858 whole entry): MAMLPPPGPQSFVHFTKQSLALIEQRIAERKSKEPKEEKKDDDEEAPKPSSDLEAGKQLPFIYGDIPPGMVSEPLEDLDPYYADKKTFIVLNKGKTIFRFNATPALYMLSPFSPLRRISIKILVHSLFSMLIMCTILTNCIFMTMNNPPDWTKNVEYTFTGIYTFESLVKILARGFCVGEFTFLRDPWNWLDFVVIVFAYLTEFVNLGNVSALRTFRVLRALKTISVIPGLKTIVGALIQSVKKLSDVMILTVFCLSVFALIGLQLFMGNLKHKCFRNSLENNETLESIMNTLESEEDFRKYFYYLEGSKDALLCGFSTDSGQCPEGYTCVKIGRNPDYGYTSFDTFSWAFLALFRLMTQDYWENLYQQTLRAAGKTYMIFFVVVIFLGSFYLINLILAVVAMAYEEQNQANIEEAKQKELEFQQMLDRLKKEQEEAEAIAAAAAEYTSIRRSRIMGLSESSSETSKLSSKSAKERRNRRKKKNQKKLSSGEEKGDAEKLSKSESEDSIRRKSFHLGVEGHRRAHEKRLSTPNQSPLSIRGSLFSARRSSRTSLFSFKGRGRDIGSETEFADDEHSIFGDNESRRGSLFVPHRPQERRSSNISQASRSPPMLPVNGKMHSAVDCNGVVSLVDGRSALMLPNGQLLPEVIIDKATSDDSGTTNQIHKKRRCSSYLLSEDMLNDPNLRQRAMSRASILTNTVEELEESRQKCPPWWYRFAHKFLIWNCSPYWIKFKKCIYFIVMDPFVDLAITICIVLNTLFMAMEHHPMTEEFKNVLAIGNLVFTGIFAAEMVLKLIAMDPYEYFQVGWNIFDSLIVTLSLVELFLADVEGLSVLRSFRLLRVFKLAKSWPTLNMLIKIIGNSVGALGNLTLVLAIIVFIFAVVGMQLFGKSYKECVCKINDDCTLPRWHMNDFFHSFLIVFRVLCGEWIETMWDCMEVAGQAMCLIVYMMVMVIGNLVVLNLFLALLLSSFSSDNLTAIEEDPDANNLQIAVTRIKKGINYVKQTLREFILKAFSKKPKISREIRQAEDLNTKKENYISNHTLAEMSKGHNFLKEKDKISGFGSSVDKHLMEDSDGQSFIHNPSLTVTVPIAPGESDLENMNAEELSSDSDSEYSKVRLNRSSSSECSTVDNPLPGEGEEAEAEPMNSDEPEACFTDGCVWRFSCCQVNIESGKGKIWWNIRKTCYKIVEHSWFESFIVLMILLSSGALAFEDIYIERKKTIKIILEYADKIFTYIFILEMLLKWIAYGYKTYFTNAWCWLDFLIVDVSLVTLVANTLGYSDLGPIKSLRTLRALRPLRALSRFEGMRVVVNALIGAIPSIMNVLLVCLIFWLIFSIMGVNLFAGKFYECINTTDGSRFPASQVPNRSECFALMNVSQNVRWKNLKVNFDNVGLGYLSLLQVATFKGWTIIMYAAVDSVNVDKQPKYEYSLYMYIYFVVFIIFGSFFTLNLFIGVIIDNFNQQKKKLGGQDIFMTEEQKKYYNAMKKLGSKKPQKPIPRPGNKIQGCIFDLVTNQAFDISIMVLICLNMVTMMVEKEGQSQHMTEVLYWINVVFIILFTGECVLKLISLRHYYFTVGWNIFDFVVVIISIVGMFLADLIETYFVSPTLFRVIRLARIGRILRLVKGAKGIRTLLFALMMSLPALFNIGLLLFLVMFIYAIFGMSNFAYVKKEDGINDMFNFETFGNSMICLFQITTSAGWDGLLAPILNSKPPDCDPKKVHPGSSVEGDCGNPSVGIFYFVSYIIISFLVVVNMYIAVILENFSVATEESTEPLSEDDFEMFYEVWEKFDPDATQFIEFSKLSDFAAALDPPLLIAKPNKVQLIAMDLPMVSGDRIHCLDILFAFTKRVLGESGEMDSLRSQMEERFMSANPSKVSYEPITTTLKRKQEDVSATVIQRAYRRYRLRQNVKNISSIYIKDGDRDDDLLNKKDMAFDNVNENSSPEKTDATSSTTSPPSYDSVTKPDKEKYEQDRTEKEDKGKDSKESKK

Compound | IC50 [nM]
O=C(NS(=O)(=O)N1CCC1)c1cc(C2CC2)c(OCC2CC3CCC(C2)N3C(c2ccccc2)c2ccccc2)cc1F (stereo not drawn) [US9546164, 49] | 4.3
CC(c1ccc(OC(F)(F)F)cc1)N1CC(COc2cc(F)c(C(=O)NS(C)(=O)=O)cc2C2CC2)C1 (stereo not drawn) [US9546164, 157] | 35.1
CS(=O)(=O)NC(=O)c1cc(C2CC2)c(OCC2(F)CN(C(c3ccccc3)c3ccccc3)C2)cc1F [US9546164, 67] | 7.9
CC1(COc2cc(F)c(C(=O)NS(C)(=O)=O)cc2C2CC2)CCN(Cc2cc(C(F)(F)F)ccc2C(F)(F)F)CC1 [US9546164, 107] | 2.1
CS(=O)(=O)NC(=O)c1cc(C2CC2)c(OCC2(F)CCN(Cc3cc(Cl)ccc3C(F)(F)F)CC2)cc1F [US9546164, 348] | 4.5
CC(C)(C)OC(=O)N1CCC(COc2cc(F)c(C(=O)NS(C)(=O)=O)cc2Cl)CC1 [US9546164, 78] | 490
O=C(NS(=O)(=O)C1CC1)c1cc(C2CC2)c(OCC2CCN(S(=O)(=O)c3ccc4ccccc4c3)CC2)cc1F [US9546164, 389] | 8.8
CS(=O)(=O)NC(=O)c1cc(C2CC2)c(OCC2CCN(S(=O)(=O)c3cc(F)c(F)c(F)c3)CC2)cc1F [US9546164, 380] | 40.9
